One series has as its system Hs-578T polyspheroids. Briefly: 3D polyspheroid growth assay with dual treatment (formulation + AMF). In kind it is cell-based. The note with it: 2 µM relative to DOX + 1h AMF on days 1, 3 and 5; monitored 19 days. The protocol:
In an embodiment, 3D spheroids were prepared. In a 96-well plate was a hot and sterile solution of 1% agarose added (100 µL) and left to cool for 30 min at 4 °C. Then, the plate was tempered and 20000 cancer cells added to each well in 120 µ L of medium. The plate was centrifugated at 800 G during 30 min to promote the formation of the spheroid. The Spheroids were incubated for one week with a medium change every 3 days, until a small dense Spheroid was formed. These spheroids were used in confocal microscopy, or to form poly-spheroids. […]
In an embodiment, growth assay was performed. […] The polyspheroids were monitored every 2 days before treatments or medium change, using an inverted phase-contrast microscope (Nikon Eclipse TS100, Nikon Corporation, Tokyo, Japan) connected to a digital camera (Nikon, DS-Fi1). […] The images were analyzed with image J and R statistical language, using R-packages imager and EBImage, to determine the area of each polyspheroids treated with each condition for every day analyzed. The growth of the polyspheroids were normalized in regards to their own initial area at the start of the experiment, and calculated as { Growth = 100 × (Area−Area^day1)/(Area^day1) [formula] }. The daily growth was calculated as {Growth^daily=(∑Growth)/(19 days)} [formula] . […]

For a further series, the system named is Hs-578T cells. The series can be described thus: Wound-healing (cell migration) assay. The class given is cell-based. The conditions noted are these: at the IC50 DOX concentration, up to 48h. The protocol: The effect of the functionalized mSLNs AF-2 (EBR85, T-sensitive, +DOX) and AF-3 (EBR89, T-insensitive, -DOX) and reference compound (DOX) on the cell migration capability of Hs-578T cells was assessed through the wound-healing assay. mSLNs (with and without DOX) at the IC50 DOX concentration and equivalent mSLNs were used in the experiment. EBR89 (without DOX) was selected to study the effect of the nanoparticle nature on this tumorigenic feature and evaluate its toxicity. Cell migration and invasion are two hallmarks of cancer correlated to cancer progression and metastasis which correspond to a worse cancer prognosis.
Results are presented as mean ± SD of at least three independent experiments.

Series [1] deals with triple negative breast cancer cells (Hs-578T). The series can be described thus: Resazurine cell viability assay, 2D culture, with or without magnetic hyperthermia. The note with it: Homo sapiens. The class given is cell-based. The protocol: In an embodiment, 2D- cell culture was prepared. Hs-578T and MBA-MB-231 TNBC cell lines (ATCC HTB-126 and ATCC Htb-26, respectively) were grown in Dulbecco's Modified Eagle's Medium (DMEM) supplemented with 10% foetal bovine serum and 1% penicillin/streptomycin. THP-1 peripheral blood monocytes (ATCC TIB-202) were grown in Gibco Roswell Park Memorial Institute (RPMI) medium supplemented with 10% foetal bovine serum and 1% penicillin/streptomycin. All cell lines were incubated at 37 °C in a 5% CO2 atmosphere.
In an embodiment, cell viability was assessed. The Resazurine assay was used to calculate the cell viability. The assay is based on the reduction by living cells of the oxidized blue dye to a pink fluorescent resorufin product. […] The fluorescence of each condition was then read with an Biotek Synergy H1 plate reader, and compared to the controls using the formula {Viability = (Treated cells−blank)/(Untreated cells−blank) × 100 [formula] }. […] For each, the inhibitory concentration 50 (IC50) of each formulation was calculated using the DRC R-package. […] The activity gain (AG) for the different formulations was calculated as {AGF=100×(IC50^(free DOX) −IC50^mSLNP)/(IC50^(free DOX))} [formula] , whilst the AG of the magnetic hyperthermia event was calculated as {AGMH=100×(IC50^noHT −IC50^HT)/(IC50^noHT)} [formula] . […]

The subject of a further series is Hs578t tumor. Briefly: In ovo (CAM) tumor growth model. The conditions noted are these: 2xIC50 (DOX concentration), treated at day 13, read at day 17. The class given is in vivo, chicken. The method, then:
(§1) (A) In ovo pictures at day 13 of embryo development and in ovo and ex ovo pictures at day 17; representative images were taken at 20x in a Zeiss stereomicroscope. (B) Graphical representation of tumor growth. Data was analyzed by one-way ANOVA and the results are representative for the mean of at least 15 eggs per group;^∗∗∗p<0.0001 ^∗p<0.05. Hs578t cells were used to establish a TNBC chicken egg model. Fertilized eggs were incubated for 9 days and, at this time, the chicken embryo is surrounded by the CAM which provides nutrients for its development. At day 13 of development, the tumor mass could be visualized and the resulting tumors were treated with 2xlC50 EBR85-functionalized nanoparticles (corresponding to DOX concentration). The same concentration of DOX was used for the group treated with DOX alone. Also, a control group treated with DMEM medium was used to evaluate tumorgrowth. […] As observed in Figure 16, a significant reduction on tumor size could be appreciated for the EBR85-treated group, comparing to the control and DOX-treated groups.

Another series deals with chick embryo. Briefly: Toxicity to the embryo in the in ovo model. In kind it is in vivo, chicken. The note with it: 2xIC50 (DOX concentration), throughout the experiment. The protocol: as §1

The term IC50 denotes the concentration needed to halve the response being measured.

Entries after “also recorded” stand apart in the source; their conditions may differ.

For `COc1cccc2c1C(=O)c1c(O)c3c(c(O)c1C2=O)C[C@@](O)(C(=O)CO)C[C@@H]3O[C@H]1C[C@H](N)[C@H](O)[C@H](C)O1` [DOX, Doxorubicin], the polyspheroid growth entry with Hs-578T polyspheroids is “continued to grow during the first week of treatment; also recorded: slowing down its growth”. Besides, in the series on Hs-578T cells, the cell migration capability result is “very low migration capability”. For the same molecule, the half-inhibitory concentration (IC50) came out at 1600 nM in series [1] (72h, without magnetic hyperthermia) and 1520 nM in series [1] (Figure 4C experiment, EBR85 with 1h magnetic hyperthermia then 72 h, free DOX as reference). Also, the “regression in the tumors' area” value in the series on Hs578t tumor amounted to 11%. For the same molecule, the “toxicity to the chick embryo” value in the series on chick embryo is on record as “no toxicity”.

For the origin of these results see EP4205768A1, “MAGNETIC SOLID LIPID NANOPARTICLES, METHODS AND USES THEREOF” (priority 2021, dated 2023).
